Source: ChEMBL document CHEMBL5032495, “Discovery of Novel Tacrine-Pyrimidone Hybrids as Potent Dual AChE/GSK-3 Inhibitors for the Treatment of Alzheimer's Disease” (J Med Chem, 2021)
Active and inactive are the calls of the source. No cut-off for these calls is given here.

Experiments:
[1] = MRTlast in ICR mouse at 15 mg/kg, ip measured upto 24 hrs by UPLC-MS/MS analysis; assay type: ADME, organism-based; settings: in vivo
[2] = Ratio of drug concentration in brain to plasma in ICR mouse at 15 mg/kg, ip measured after 2 hrs by UPLC-MS/MS analysis; assay type: ADME, organism-based
[3] = Cmax in ICR mouse at 5 mg/kg, iv measured upto 24 hrs by UPLC-MS/MS analysis; assay type: ADME, organism-based; design: route intravenous, dose 5 mg/kg, time <=24; settings: in vivo
[4] = Drug concentration in ICR mouse brain at 15 mg/kg, ip measured after 4 hrs by UPLC-MS/MS analysis; assay type: ADME, organism-based; settings: read-out: Drug uptake
[5] = Half life in ICR mouse at 5 mg/kg, iv measured upto 24 hrs by UPLC-MS/MS analysis; assay type: ADME, organism-based; settings: in vivo
SH-SY5Y [6] = assay: Neuroprotective activity against glyceraldehyde-induced neurotoxicity in human SH-SY5Y cells assessed as increase in cell viability at 0.5 to 5 uM incubated for 24 hrs by MTT assay; assay type: functional, cell-based; settings: dose 0.5-5 µM
[7] = biological target: T1, Glycogen synthase kinase-3 beta (Homo sapiens, UniProt P49841); assay: Inhibition of GSK-3beta in glyceraldehyde-treated human SH-SY5Y cells assessed as reduction in phosphorylated Tau levels at S199 site measured after 24 hrs by ELISA
Target sequence in this assay (P49841 whole entry, looked up): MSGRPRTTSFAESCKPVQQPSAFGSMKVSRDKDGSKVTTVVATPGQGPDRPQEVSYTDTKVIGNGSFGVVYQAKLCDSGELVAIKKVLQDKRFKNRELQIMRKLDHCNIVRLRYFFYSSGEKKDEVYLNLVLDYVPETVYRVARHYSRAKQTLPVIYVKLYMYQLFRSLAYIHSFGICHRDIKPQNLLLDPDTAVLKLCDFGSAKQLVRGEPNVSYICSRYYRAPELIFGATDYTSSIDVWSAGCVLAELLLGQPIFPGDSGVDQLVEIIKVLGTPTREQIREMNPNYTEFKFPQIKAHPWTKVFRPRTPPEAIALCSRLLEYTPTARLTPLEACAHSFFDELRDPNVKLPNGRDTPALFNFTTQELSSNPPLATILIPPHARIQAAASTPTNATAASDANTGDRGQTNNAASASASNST

[8] = Volume of distribution in ICR mouse at 15 mg/kg, ip measured upto 24 hrs by UPLC-MS/MS analysis; assay type: ADME, organism-based; settings: in vivo
[9] = Drug concentration in ICR mouse plasma at 15 mg/kg, ip measured after 4 hrs by UPLC-MS/MS analysis; assay type: ADME, organism-based
[10] = Volume of distribution in ICR mouse at 5 mg/kg, iv measured upto 24 hrs by UPLC-MS/MS analysis; assay type: ADME, organism-based; settings: in vivo
[11] = Apparent oral clearance in ICR mouse at 5 mg/kg measured upto 24 hrs by UPLC-MS/MS analysis; assay type: ADME, organism-based; settings: in vivo
[12] = Drug concentration in ICR mouse brain at 15 mg/kg, ip measured after 0.5 hrs by UPLC-MS/MS analysis; assay type: ADME, organism-based; settings: read-out: Drug uptake
[13] = Tmax in ICR mouse at 15 mg/kg, ip measured upto 24 hrs by UPLC-MS/MS analysis; assay type: ADME, organism-based; settings: in vivo
[14] = Cmax in ICR mouse at 15 mg/kg, ip measured upto 24 hrs by UPLC-MS/MS analysis; assay type: ADME, organism-based; design: route intraperitoneal, dose 15 mg/kg, time <=24; settings: in vivo
[15] = Drug concentration in ICR mouse plasma at 15 mg/kg, ip measured after 1 hr by UPLC-MS/MS analysis; assay type: ADME, organism-based
[16] = biological target: Glycogen synthase kinase-3 alpha (Homo sapiens) (UniProt P49840); assay: Inhibition of GSK-3alpha (unknown origin) at 1000 nM
Sequence of Glycogen synthase kinase-3 alpha (Homo sapiens) (P49840 2-483 limits assumed): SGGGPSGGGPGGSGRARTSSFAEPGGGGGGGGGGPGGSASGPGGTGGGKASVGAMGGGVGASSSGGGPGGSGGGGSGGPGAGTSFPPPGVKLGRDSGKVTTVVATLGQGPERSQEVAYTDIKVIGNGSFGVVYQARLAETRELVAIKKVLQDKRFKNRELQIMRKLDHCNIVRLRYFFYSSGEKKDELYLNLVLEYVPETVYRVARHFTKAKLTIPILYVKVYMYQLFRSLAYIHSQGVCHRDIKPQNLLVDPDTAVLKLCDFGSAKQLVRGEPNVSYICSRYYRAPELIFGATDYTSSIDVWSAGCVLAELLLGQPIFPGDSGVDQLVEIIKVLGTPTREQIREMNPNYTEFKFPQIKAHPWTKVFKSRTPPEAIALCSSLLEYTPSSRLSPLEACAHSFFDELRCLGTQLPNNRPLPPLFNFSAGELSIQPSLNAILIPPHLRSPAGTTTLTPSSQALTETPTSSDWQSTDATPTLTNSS

[17] = Toxicity in ICR mouse assessed as swimming motility impairment at 15 mg/kg, ip measured after 15 days; assay type: organism-based; settings: in vivo, 360 h, time 15 day
SH-SY5Y [18] = assay: Neuroprotective activity in human SH-SY5Y cells assessed as prevention of glyceraldehyde-induced neurite shortening at 0.5 to 5 uM incubated for 1 hr by confocal microsocopic analysis; assay type: functional, cell-based; settings: dose 0.5-5 µM
[19] = Drug concentration in ICR mouse plasma at 15 mg/kg, ip measured after 2 hrs by UPLC-MS/MS analysis; assay type: ADME, organism-based
[20] = Bioavailability in ICR mouse at 15 mg/kg, ip measured upto 24 hrs by UPLC-MS/MS analysis; assay type: ADME, organism-based; settings: in vivo
[21] = AUClast in ICR mouse at 15 mg/kg, ip measured upto 24 hrs by UPLC-MS/MS analysis; assay type: ADME, organism-based; design: route intraperitoneal, dose 15 mg/kg, time <=24; settings: in vivo
[22] = MRTlast in ICR mouse at 5 mg/kg, iv measured upto 24 hrs by UPLC-MS/MS analysis; assay type: ADME, organism-based; settings: in vivo
[23] = Toxicity in ICR mouse assessed as diarrhea at 15 mg/kg, ip measured after 15 days; assay type: organism-based; settings: in vivo, 360 h, time 15 day
[24] = Half life in ICR mouse at 15 mg/kg, ip measured upto 24 hrs by UPLC-MS/MS analysis; assay type: ADME, organism-based; settings: in vivo
[25] = Toxicity in ICR mouse assessed as emesis at 15 mg/kg, ip measured after 15 days; assay type: organism-based; settings: in vivo, 360 h, time 15 day
[26] = Drug concentration in ICR mouse brain at 15 mg/kg, ip measured after 1 hr by UPLC-MS/MS analysis; assay type: ADME, organism-based; settings: read-out: Drug uptake
[27] = Apparent oral clearance in ICR mouse at 15 mg/kg measured upto 24 hrs by UPLC-MS/MS analysis; assay type: ADME, organism-based; settings: in vivo
Acetylcholinesterase = biological target: T2, Acetylcholinesterase (Mus musculus, UniProt P21836); assay: Inhibition of mouse AChE using acetylthiocholine iodide as substrate incubated for 20 mins by Ellman's method
T2 sequence (P21836 whole entry): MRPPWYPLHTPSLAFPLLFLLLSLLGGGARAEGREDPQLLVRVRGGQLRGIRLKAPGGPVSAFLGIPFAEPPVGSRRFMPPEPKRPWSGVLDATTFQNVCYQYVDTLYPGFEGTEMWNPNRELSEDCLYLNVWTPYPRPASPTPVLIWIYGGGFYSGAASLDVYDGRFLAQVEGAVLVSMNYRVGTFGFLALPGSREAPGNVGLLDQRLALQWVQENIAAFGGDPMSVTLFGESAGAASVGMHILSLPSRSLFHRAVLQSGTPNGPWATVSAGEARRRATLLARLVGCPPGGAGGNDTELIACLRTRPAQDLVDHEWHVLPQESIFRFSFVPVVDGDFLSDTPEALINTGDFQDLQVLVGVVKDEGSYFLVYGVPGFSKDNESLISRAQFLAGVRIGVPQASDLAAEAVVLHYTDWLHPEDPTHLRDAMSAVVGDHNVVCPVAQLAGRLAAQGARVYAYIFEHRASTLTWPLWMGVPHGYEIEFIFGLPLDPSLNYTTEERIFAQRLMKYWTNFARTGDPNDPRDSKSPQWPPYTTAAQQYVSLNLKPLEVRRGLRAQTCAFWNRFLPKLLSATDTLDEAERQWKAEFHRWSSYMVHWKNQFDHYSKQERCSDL

[28] = Drug concentration in ICR mouse brain at 15 mg/kg, ip measured after 2 hrs by UPLC-MS/MS analysis; assay type: ADME, organism-based; settings: read-out: Drug uptake
[29] = Ratio of drug concentration in brain to plasma in ICR mouse at 15 mg/kg, ip measured after 0.5 hrs by UPLC-MS/MS analysis; assay type: ADME, organism-based
[30] = biological target: T1, Glycogen synthase kinase-3 beta
Target sequence in this assay (P49841 whole entry): as the sequence (P49841 whole entry, looked up) above
Description: Inhibition of human recombinant GSK-3beta using prephosphorylated polypeptide as substrate incubated for 30 mins in presence of ATP by Kinase-Glo luminescence assay

[31] = Ratio of drug concentration in brain to plasma in ICR mouse at 15 mg/kg, ip measured after 4 hrs by UPLC-MS/MS analysis; assay type: ADME, organism-based
[32] = AUClast in ICR mouse at 5 mg/kg, iv measured upto 24 hrs by UPLC-MS/MS analysis; assay type: ADME, organism-based; design: route intravenous, dose 5 mg/kg, time <=24; settings: in vivo
[33] = biological target: T1, Glycogen synthase kinase-3 beta; assay: Inhibition of GSK-3beta (unknown origin) at 1000 nM
Target sequence in this assay (P49841 whole entry, looked up): as above

[34] = biological target: T1, Glycogen synthase kinase-3 beta; assay: Inhibition of GSK-3beta in glyceraldehyde-treated human SH-SY5Y cells assessed as reduction in phosphorylated Tau levels at S396 site measured after 24 hrs by ELISA
Target sequence in this assay (P49841 whole entry, looked up): as above

[35] = Drug concentration in ICR mouse plasma at 15 mg/kg, ip measured after 0.5 hrs by UPLC-MS/MS analysis; assay type: ADME, organism-based
[36] = Ratio of drug concentration in brain to plasma in ICR mouse at 15 mg/kg, ip measured after 1 hr by UPLC-MS/MS analysis; assay type: ADME, organism-based
[37] = Tmax in ICR mouse at 5 mg/kg, iv measured upto 24 hrs by UPLC-MS/MS analysis; assay type: ADME, organism-based; settings: in vivo

Compound `Cn1c(NCCCCCCCNc2c3c(nc4cc(Cl)ccc24)CCCC3)nc(-c2ccncc2F)cc1=O` has an MRT last at 24 h [1] of 46.8 min, a Kp at 2 h [2] of 0.522 and a Cmax [3] of 2810 ng/mL. The concentration at 4 h [4] was 5.99 ng/g, the half-life [5] was 219 min and the Activity (SH-SY5Y [6]) was “Active”. For the same compound, the inhibition [7] was “Dose-Dependent Effect”, the Vd [8] was 14.14 L/kg and the concentration at 4 h [9] was 3.47 ng/mL. For the same compound, the Vd [10] was 16.4 L/kg, the CL/F [11] was 0.0513 mL/min/kg and the concentration at 0.5 h [12] was 23.6 ng/g. It also gave a Tmax [13] of 8.34 min, a Cmax [14] of 1870 ng/mL and a concentration at 1 h [15] of 76.8 ng/mL. For the same compound, the inhibition [16] was “Active”, the Activity [17] was “Non-Toxic” and the Activity (SH-SY5Y [18]) was “Dose-Dependent Effect”. It also gave a concentration at 2 h [19] of 26.8 ng/mL, a bioavailability [20] of 35.3% and an AUC(0-t) at 24 h [21] of 1660 ng·h/mL. For the same compound, the MRT last at 24 h [22] was 183 min, the Activity [23] was “Non-Toxic” and the half-life [24] was 69 min. The Activity [25] was “Non-Toxic”, the concentration at 1 h [26] was 11.1 ng/g and the CL/F [27] was 0.152 mL/min/kg. It also gave an IC50 (Acetylcholinesterase) of 51.1 µM, a concentration at 2 h [28] of 12.2 ng/g and a Kp at 0.5 h [29] of 0.028. For the same compound, the IC50 [30] was 89.3 µM, the Kp at 4 h [31] was 1.92 and the AUC(0-t) at 24 h [32] was 1560 ng·h/mL. For the same compound, the inhibition [33] was “Active”, the inhibition [34] was “Dose-Dependent Effect” and the concentration at 0.5 h [35] was 866 ng/mL. It also gave a Kp at 1 h [36] of 0.148 and a Tmax [37] of 1.98 min.
